Legend:
[1] = test system: Puccinia recondita f. sp. tritici (the causal agent of wheat leaf rust); assay: Test B: preventive spray on wheat seedlings, disease rating (100 = 100% control; * 50 ppm, ** 10 ppm, *** 250 ppm); assay type: in vivo; details: 100 = 100% disease control
From the text: (§1) General protocol for preparing test suspensions for Tests A-E: the test compounds were first dissolved in acetone in an amount equal to 3% of the final volume and then suspended at the desired concentration (in ppm) in acetone and purified water (50/50 mix by volume) containing 250 ppm of the surfactant […] (polyhydric alcohol esters). The resulting test suspensions were then used in Tests A-E.
(§2) The test solution was sprayed to the point of run-off on wheat seedlings. The following day the seedlings were inoculated with a spore suspension of Puccinia recondita f. sp. tritici (the causal agent of wheat leaf rust) and incubated in a saturated atmosphere at 20° C. for 24 h, and then moved to a growth chamber at 20° C. for 6 days, after which time disease ratings were made.
(§3) Results for Tests A-E are given in Table A. In the Table, a rating of 100 indicates 100% disease control and a rating of 0 indicates no disease control (relative to the controls). An asterisk “*” or a double asterisk “**” or a triple asterisk “***” next to the rating value indicates a 50 ppm, 10 ppm and 250 ppm test suspension was used, respectively. A dash (-) indicates the compound was not tested.

[2] = test system: Phakopsora pachyrhizi (the causal agent of Asian soybean rust); assay: Test A: preventive spray on soybean seedlings, visual disease rating (100 = 100% control; * 50 ppm, ** 10 ppm, *** 250 ppm); assay type: in vivo; details: 100 = 100% disease control
From the text: as §1
as §2, with “soybean” for “wheat”, “Phakopsora pachyrhizi” for “Puccinia recondita f. sp. tritici”, “Asian soybean” for “wheat leaf”, “22°” for “20°”, “8” for “6”, “time visual” for “time”
as §3

[3] = 10 ppm test suspension, 0 = no control
[4] = 10 ppm test suspension, wheat seedlings
[5] = 10 ppm test suspension, soybean seedlings
[6] = 50 ppm test suspension, 0 = no control
[7] = 50 ppm test suspension, wheat seedlings
[8] = 50 ppm test suspension, soybean seedlings
[9] = Puccinia recondita, 10 ppm test suspension, 0 = no control
[10] = Phakopsora pachyrhizi, 10 ppm test suspension, 0 = no control

Structure (SMILES) | Test B disease control rating [1, 4] [%] | Test A disease control rating [2, 5] [%] | further results
CCOC(=O)c1ccn(Cc2ccc(F)c(O/C=C(\OCC)C(F)(F)F)c2)n1 [compound 420] |  |  | Test B disease control rating [1, 3]: 0%; Test A disease control rating [2, 3]: 0%
COC(=O)NN=Cc1ccc(OCC2(C(F)(F)F)OCCO2)cc1 [compound 27] | 0 | 0 | 
O=C(OCc1ccc(F)c(F)c1)c1cnn(Cc2ccc(OCC3(C(F)(F)F)OCCO3)cc2)c1 [compound 18] | 0 | 100 | 
CCO/C(=C\Oc1cccc(Cn2cc(C(=O)OCC(F)F)cn2)c1)C(F)(F)F [compound 347] |  |  | Test B disease control rating [1, 6]: 0%; Test A disease control rating [2, 6]: 100%
CCOC(=O)c1ccn(Cc2ccc(OCC(O)(O)C(F)(F)F)cc2)n1 [compound 233] |  |  | Test B disease control rating [1, 7]: 96%; Test A disease control rating [2, 8]: 100%
CCOC(=O)c1cnn(CCc2cccc(OCC(O)(O)C(F)(F)F)c2)c1 [compound 346] |  |  | pest or weed control at 10 ppm [1, 9]: 0%; pest or weed control at 10 ppm [2, 10]: 0%
CCOC(=O)C1CCCN(Cc2ccc(O/C=C(\OCC)C(F)(F)F)cc2)C1 (centres unmarked) [compound 269] |  |  | Test B disease control rating [1, 3]: 0%; Test A disease control rating [2, 3]: 100%
CCOC(=O)c1cnn(Cc2cccc(O/C=C(\OC)C(F)(F)F)c2)c1 [compound 365] |  |  | Test B disease control rating [1, 3]: 0%; Test A disease control rating [2, 3]: 100%
CCOC(=O)c1cnn(CCCc2ccc(O/C=C(\OCC)C(F)(F)F)cc2)c1 [compound 294] |  |  | Test B disease control rating [1, 3]: 0%; Test A disease control rating [2, 3]: 100%
O=C(OCc1ccccc1)c1cnn(Cc2ccc(OCC(O)(O)C(F)(F)F)cc2)c1 [compound 47] |  |  | Test B disease control rating [1, 7]: 95%; Test A disease control rating [2, 8]: 100%
O=C(NCC(F)(F)F)c1cnc(Cc2ccc(OCC3(C(F)(F)F)OCCO3)cc2)s1 [compound 275] |  |  | Test B disease control rating [1, 3]: 0%; Test A disease control rating [2, 3]: 0%
CCOC(=O)c1cnn(COc2cccc(O/C=C(\OCC)C(F)(F)F)c2)c1 [compound 321] |  |  | pest or weed control at 10 ppm [1, 9]: 0%; pest or weed control at 10 ppm [2, 10]: 100%
CCO/C(=C\Oc1ccc(Cn2cnc(SC)n2)cc1)C(F)(F)F [compound 261] |  |  | Test B disease control rating [1, 3]: 0%; Test A disease control rating [2, 3]: 0%
CCOC(=COc1ccc(Cn2nccc2C(=O)OC(C)(C)C)cc1)C(F)(F)F [compound 252] | 0 | 0 | 
FC(F)(F)C1(COc2ccc(-c3ccccc3)cc2)OCCO1 [compound 190] | 0 | 0 | 
CCOC(=COc1ccc(CN2CCC(C(=O)OC)CC2)cc1)C(F)(F)F [compound 309] |  |  | Test B disease control rating [1, 3]: 0%; Test A disease control rating [2, 3]: 100%
CC(C)OC(=O)c1cnn(Cc2ccc(OCC(O)(O)C(F)(F)F)cc2)c1 [compound 39] | 79 | 91 | 
CCO/C(=C\Oc1ccc(CNC(=O)CC(F)(F)F)cc1)C(F)(F)F [compound 113] | 0 | 0 | 
O=C(OCC(F)(F)F)c1cnn(Cc2ccc(OCC(O)(O)C(F)(F)F)cc2)c1 [compound 45] | 85 | 87 | 
CCO/C(=C\Oc1ccc(Cn2cc(C(=O)NCC(F)(F)F)cn2)cc1)C(F)(F)F [compound 106] | 0 | 0 | 
CCOC(=O)c1cc(OC)n(Cc2ccc(O/C=C(\OCC)C(F)(F)F)cc2)n1 [compound 90] | 0 | 100 | 
COC(COc1cccc(Cn2cc(Br)cn2)c1)(O[Si](C)(C)C)C(F)(F)F (centres unmarked) [compound 385] |  |  | pest or weed control at 50 ppm ([1]; Puccinia recondita, 50 ppm test suspension, 0 = no control): 68%; pest or weed control at 50 ppm ([2]; Phakopsora pachyrhizi, 50 ppm test suspension, 0 = no control): 100%
O=C(NCC(F)F)c1cnc(Cc2ccc(OCC(O)(O)C(F)(F)F)cc2)s1 [compound 295] |  |  | Test B disease control rating [1, 6]: 80%; Test A disease control rating [2, 6]: 99%
COC(C)C(=O)NCc1ccc(OCC2(C(F)(F)F)OCCO2)cc1 (centres unmarked) [compound 214] | 0 | 0 | 
CCO/C(=C\Oc1ccc(Cn2cnc(C(=O)OC)c2)cc1)C(F)(F)F [compound 86] | 0 | 99 | 
CCOC(=O)NCc1ccc(OCC2(C(F)(F)F)OCCO2)cc1 [compound 78] | 0 | 94 | 

Structure (SMILES) | Test B disease control rating [1, 4] [%] | Test A disease control rating [2, 5] [%] | further results
COCCNC(=O)c1csc(Cc2ccc(OCC(O)(O)C(F)(F)F)cc2)n1 [Compound 223] | 0 | 75 | 
O=C(OCC1CCCC1)c1cnn(Cc2ccc(OCC3(C(F)(F)F)OCCO3)cc2)c1 [compound 284] |  |  | Test B disease control rating [1, 3]: 0%; Test A disease control rating [2, 3]: 100%
O=C(OC1CCC1)c1cnn(Cc2ccc(OCC3(C(F)(F)F)OCCO3)cc2)c1 [compound 318] |  |  | Test B disease control rating [1, 3]: 0%; Test A disease control rating [2, 3]: 100%
N#CCNC(=O)c1cnn(Cc2ccc(OCC3(C(F)(F)F)OCCO3)cc2)c1 [compound 164] | 0 | 31 | 
CCOC(=O)c1cnn(COc2ccc(OCC(O)(O)C(F)(F)F)cc2F)c1 [compound 424] |  |  | pest or weed control at 10 ppm [1, 9]: 41%; pest or weed control at 10 ppm [2, 10]: 97%
CCO/C(=C\Oc1ccc(C(=O)O)cc1)C(F)(F)F [compound 72] |  |  | Test B disease control rating [1, 7]: 0%; Test A disease control rating [2, 8]: 13%
FC(F)(F)C1(COc2ccc(OCC3(C(F)(F)F)OCCO3)cc2)OCCO1 [compound 28] | 0 | 0 | 
FC(F)(F)C1(COc2ccc(CNC(=S)NC3CCCCC3)cc2)OCCO1 [compound 77] | 0 | 99 | 
CCO/C(=C\Oc1ccc(Cn2ccnc2)cc1)C(F)(F)F [compound 156] | 0 | 0 | 
CCOC(=O)c1cnn(CCc2ccc(OCC(O)(O)C(F)(F)F)cc2)c1 [compound 131] |  |  | Test B disease control rating [1, 7]: 86%; Test A disease control rating [2, 8]: 99%
CCOC(=COc1ccc(NC(=O)C2CC2)cc1)C(F)(F)F [compound 371] |  |  | Test B disease control rating [1, 6]: 77%; Test A disease control rating [2, 6]: 0%
CCOC(=O)c1nccn1Cc1cccc(O/C=C(\OCC)C(F)(F)F)c1 [compound 367] |  |  | pest or weed control at 10 ppm [1, 9]: 0%; pest or weed control at 10 ppm [2, 10]: 0%
CCO/C(=C\Oc1ccc(CSC#N)cc1)C(F)(F)F [compound 155] | 0 | 0 | 
CCOC(=O)c1cnn(Cc2ccc(CO/C=C(\OCC)C(F)(F)F)cc2)c1 [compound 167] | 0 | 38 | 
CC(=O)COC(=O)c1cnn(Cc2ccc(OCC3(C(F)(F)F)OCCO3)cc2)c1 [compound 169] | 0 | 100 | 
O=C(NCC(F)(F)F)c1csc(Cc2ccc(OCC(O)(O)C(F)(F)F)cc2)n1 [Compound 68] | 95 | 100 | 
CCOC(=O)c1cnn(Cc2cc(O/C=C(\OCC)C(F)(F)F)ccc2C)c1 [compound 451] |  |  | Test B disease control rating [1, 6]: 0%; Test A disease control rating [2, 6]: 0%
CCO/C(=C\Oc1cccc(Cn2cc(C(=O)OCCC(F)(F)F)cn2)c1)C(F)(F)F [compound 348] |  |  | Test B disease control rating [1, 3]: 0%; Test A disease control rating [2, 3]: 100%
CCOC(=COc1ccc(Cn2nccc2C(=O)OC)cc1)C(F)(F)F [compound 250] | 0 | 0 | 
CCOC(=COc1ccc(Cc2ccnc(OCC[Si](C)(C)C)n2)cc1)C(F)(F)F [compound 313] |  |  | Test B disease control rating [1, 6]: 0%; Test A disease control rating [2, 6]: 0%
CCO/C(=C\Oc1ccc(CNC(=O)C(C)C)cc1)C(F)(F)F [compound 210] | 0 | 0 | 
O=S(=O)(NCc1ccc(OCC2(C(F)(F)F)OCCO2)cc1)C(F)(F)F [compound 207] | 0 | 0 | 
O=C(OCc1ccccn1)c1cnn(Cc2ccc(OCC3(C(F)(F)F)OCCO3)cc2)c1 [compound 199] | 0 | 100 | 
CC(C)COC(=O)NCc1ccc(OCC2(C(F)(F)F)OCCO2)cc1 [compound 112] | 0 | 0 | 
FC(F)(F)C1(COc2ccc(Oc3ccccc3)cc2)OCCO1 [compound 191] | 0 | 0 | 
CCO/C(=C\Oc1ccc(C#N)cc1)C(F)(F)F [compound 144] | 0 | 78 | 

From patent publication US20240122180A1, “FUNGICIDAL HALOMETHYL KETONES AND HYDRATES AND THEIR MIXTURES” (FMC Corporation, priority 2020, published 2024)
